The text below walks through data of patent publication US20160250208A1, “TREATING ORGAN-SPECIFIC T CELL MEDIATED AUTOIMMUNE DISEASES” (UNIVERSITY OF MASSACHUSETTS, priority 2013, published 2016).

The subject of assay [1] is Fyn, IR, Lck, Btk. The settings on record: cited from earlier work.
The subject of assay [2] is Ctla4−/− mice. Kind of assay: Treatment of Ctla4−/− mice with ITK inhibitors (survival, T cell activation, LN size, tissue infiltration). Format: in vivo, mouse. To be noted: BMS509744 at 50 mg/kg, 10n at 1 mg/kg and 10 mg/kg, starting at 10 days of age; FIG. 5A.
Protocol: Control mice (n=10) were injected with solvent alone. […] Data are representative of three experiments with 4-10 mice in each group per experiment.
The subject of assay [3] is 14 other kinases. The settings on record: cited from earlier work.
For assay [4], the target named is T1, ITK (Homo sapiens, UniProt Q08881).
T1 sequence (Q08881 1-620): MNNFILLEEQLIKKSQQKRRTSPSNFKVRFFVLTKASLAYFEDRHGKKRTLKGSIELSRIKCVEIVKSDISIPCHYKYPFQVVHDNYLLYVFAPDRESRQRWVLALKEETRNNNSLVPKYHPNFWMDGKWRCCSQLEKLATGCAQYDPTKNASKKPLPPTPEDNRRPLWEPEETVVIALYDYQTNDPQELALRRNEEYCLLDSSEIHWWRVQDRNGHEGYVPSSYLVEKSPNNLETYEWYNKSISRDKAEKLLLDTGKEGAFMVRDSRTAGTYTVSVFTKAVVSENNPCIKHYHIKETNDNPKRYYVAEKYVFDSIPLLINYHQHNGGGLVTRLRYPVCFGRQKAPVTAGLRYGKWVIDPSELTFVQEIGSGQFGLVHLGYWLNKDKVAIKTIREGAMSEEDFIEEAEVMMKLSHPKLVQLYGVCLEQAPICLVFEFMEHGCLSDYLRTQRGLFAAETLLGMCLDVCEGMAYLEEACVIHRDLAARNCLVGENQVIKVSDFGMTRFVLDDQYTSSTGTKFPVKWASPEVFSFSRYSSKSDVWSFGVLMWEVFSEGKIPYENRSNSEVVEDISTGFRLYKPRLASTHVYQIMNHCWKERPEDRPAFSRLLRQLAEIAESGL
To be noted: ATP-competitive; cited from earlier work.

Assay [5] concerns SVEC4-10 cells. Kind of assay: Trans-endothelial migration assay across SVEC4-10 endothelial cells. It counts as cell-based, mouse. The settings on record: DKO LN cells pre-activated with Ionomycin 2 μg/ml for 2 hours; FIG. 8F.

For `COc1cc(C)c(Sc2cnc(NC(=O)c3ccc(CNC(C)C(C)(C)C)cc3)s2)cc1C(=O)N1CCN(C(C)=O)CC1` (centres unmarked) [BMS509744], the “inhibition of Fyn, IR, Lck, Btk” value in assay [1] is listed as “only at high concentrations”. The “lifespan of Ctla4−/− mice” value in assay [2] was “significantly increased their lifespan”. Moreover, the “activity against 14 other kinases” value in assay [3] is listed as “little or no activity”. In addition, the “inhibition of ITK kinase activity” value in assay [4] is “potently inhibits ITK kinase activity”.

For the compound `C[C@H](CCC(=O)O)C[C@H](C)C[C@H](C)C(=O)/C=C(\O)[C@H](C)C[C@H](C)C/C=C/[C@@H](C)[C@@H](O)[C@@H](C)[C@@H](O)C[C@@H]1CC[C@@](C)([C@H]2CC[C@@](C)([C@@H](C)O)O2)O1` [Ionomycin], the “frequency of DKO T cells migrating across the endothelium” value in assay [5] is “increased the frequency of DKO T cells that were able to migrate across the endothelium”.
